Laboratory results from patent US8937063B2 (Trustees of Tufts College, priority 2010, dated 2015).

Tests used:
[1] = system: high fat-fed hamsters; test: Plasma glucose in chronically dosed hamsters; assay type: in vivo, hamster; settings: ARI-001 1120 and 2240 mg/kg oral 18 days, vs vehicle
Description: These animals were dosed for 18 consecutive days, while being on a HF/HS diet for a total of nearly 5 weeks. We also examined the glucose levels in the plasma of these animals. For pharmacokinetic studies, we utilized wild type mice for both single and repeated administration study. Finally, pharmacokinetic studies were corroborated by data from single and repeated administration to monkeys.

[2] = ARI-001 plasma, liver and adipose concentrations correlated with lipid parameters; assay type: in vivo, hamster; settings: 18-day study; p<0.01 for each pair
Description: Plasma from the 19 hamsters dosed with ARI-001 in the above described 18-day study was analyzed for concentrations of ARI-001. Concentrations were determined for these samples, which were collected 24 hours after the final dose was administered. Briefly, plasma drug concentrations for the non-GLP pharmacokinetic experiments were determined by LC-MS using an Applied Biosystems 4000Qtrap spectrometer with electrospray ionization. Samples were prepared for analysis by precipitation of plasma proteins with cold methanol. HPLC of the samples was done with an Agilent Eclipse C18 column and a methanol/water gradient containing 0.1% formic acid and 5 mM ammonium acetate. ARI-001 was detected using multiple reaction monitoring (MRM) in the positive ion mode. For quantitation, a standard curve was measured by addition of known amounts of ARI-001 to plasma from untreated animals and preparing in a manner identical to the samples from treated animals. All plasma samples were spiked with 10 ng/mL of isotope-enriched ARI-001 which served as an internal standard for the LC-MS measurements. […] Pearson r values were determined using all data points, as was the two-tailed P-value for the data set. […]
FIG. 8 graphs the correlation between concentrations of ARI-001 in plasma versus liver (left), and in plasma versus adipose (right). […] Pearson r was determined using all data points illustrated. […]

For `O=C(O)c1ccc(CCN2CCOCC2)nc1` [ARI-001], the plasma glucose [1] was “neither dose of ARI-001 produced any significant change in glucose levels” and the “correlations of plasma versus liver and plasma versus adipose concentrations” value [2] was “highly statistically significant”.
